According to patent US20210170033A1, “NOVEL CONJUGATES OF A PHARMACEUTICAL AGENT AND A MOIETY CAPABLE OF BINDING TO A GLUCOSE SENSING PROTEIN” (SANOFI, priority 2017, published 2021):
Read-outs that look alike come from different tables or passages of the source.

What was measured:
A2780 cells = assay: Deoxy-glucose uptake assay in A2780 cells (14C 2-deoxy-D-glucose transport); assay type: cell-based; settings: Homo sapiens; for IC50: 20 min, inhibition of 14C 2-deoxy-D-glucose transport into A2780 cells, 20 min compound incubation, read-out: IC50
How it was run: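 Radiolabelled 2-deoxy-D-glucose transport over 20 min was scintillation-counted in A2780 cells, grown 48 h, after 20 min compound exposure in KRB. Untreated cells gave the 100% reference, with Cytochalasin B defining background. IC50 values were regressed from triplicate means across 7 or 14 concentrations.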

[1] = tested on: A2780 Human Carcinoma Cells; assay: Glucose displacement assay (ATP measurement, CellTiter-Glo); assay type: cell-based; settings: ATP measurement in A2780 cells, 0.5 μM rotenone
Procedure: 2. Glucose Displacement Assay (ATP Measurement)
30,000 A2780 Human Carcinoma Cells are seeded per well in a Greiner 96-well plate. Cells are expanded and cultured in RPMI 1640 medium+GlutaMAX® with 10% FCS and 11 mM glucose, at 37° C. with 5% CO2. After 44 h, culture media is changed and washed once with PBS to starvation media consisting of RPMI 1640 medium with 1% FCS without glucose for 2 hours. Cells are then washed with KRB buffer, followed by incubation for 20 min at 37° C. of the treatment mix consisting of 60 μL KRB buffer/well and 10 μL of compound or DMSO 10×. 10 μl of rotenone is added to the mix to a final concentration of 0.5 μM. Cell plates are left for 2 min at room temperature. 20 μL of different glucose concentrations are added to the mix—typically 0.1 to 10 mM range—.
Cells are incubated for another 15 min at 37° C., before measuring ATP with the CellTiter-Glo® Assay, under manufacturer's guidance, but without the equilibration step at room temperature for 30 min. In brief, 100 μl of Cell-Titer-Glo® Reagent is added to the wells containing already 100 μl of the previous reaction mix. Plates are mixed for 2 min at 800 rpm, followed by incubation at room temperature for 10 min to stabilize the luminescent signal. Luminescence is then recorded with the Tekan Ultra Evolution reader.

[2] = 1 mM glucose, read-out: IC50 [μM] at 1 mM glucose
[3] = 10 mM glucose, read-out: IC50 [μM] at 10 mM glucose

Row | Compound | IC50 (A2780 cells) [nM] | IC50 [1, 2] [µM] | IC50 [1, 3] [µM] | inhibition at 100 µM (A2780 cells; inhibition of 14C 2-deoxy-D-glucose transport into A2780 cells at 100 μM, read-out: % inh. at 100 μM) [%]
1 | COc1cc(C(=O)OC[C@H]2O[C@H](OC)[C@H](O)[C@@H](O)[C@@H]2O)cc(Cl)c1OCc1cccc(NC(=O)OC(C)(C)C)c1 [Example 20] | 28700 | 12.7 | 33.9 | –
2 | CO[C@H]1O[C@H](CO)[C@@H](O)[C@H](O)[C@H]1OC(=O)c1cc(Cl)c(OCc2nc3ccccc3n2Cc2ccccc2Cl)c(Cl)c1 [Example 116] | 2200 | 16.7 | 104 | –
3 | C#CCCCn1c(COc2c(Cl)cc(C(=O)N[C@H]3[C@@H](OC)O[C@H](CO)[C@@H](O)[C@@H]3O)c(C)c2Cl)nc2ccccc21 [Example 201] | 4500 | 0.393 | 2.4 | –
4 | C#CCCC(=O)Nc1cccc(COc2c(Cl)cc(C(=O)O[C@H]3[C@@H](OC)O[C@H](CO)[C@@H](O)[C@@H]3O)c(C)c2Cl)c1 [Example 206] | 8400 | 1.7 | > 10 | –
5 | C#CCCCn1cnc(COc2c(Cl)cc(C(=O)O[C@H]3[C@@H](OC)O[C@H](CO)[C@@H](O)[C@@H]3O)cc2OC)c1 [Example 208] | 12700 | 21.4 | > 100 | –
6 | COc1cc(OCc2ccccc2)c(Cl)cc1C(=O)N[C@H]1[C@@H](OC)O[C@H](CO)[C@@H](O)[C@@H]1O [Example 232] | 7300 | 5.6 | > 33 | –
7 | COc1cc(OCc2ccccc2)c(Cl)cc1C(=O)O[C@H]1[C@@H](OC)O[C@H](CO)[C@@H](O)[C@@H]1O [Example 233] | 1100 | 1.67 | 21.1 | –
8 | C#CCCCn1c(COc2c(Cl)cc(C(=O)O[C@H]3[C@@H](OC)O[C@H](CO)[C@@H](O)[C@@H]3O)c(C)c2Cl)nc2ccc(OC)cc21 [Example 291] | 100 | 0.12 | 0.29 | –
9 | C#CCCCn1c(COc2c(Cl)cc(C(=O)O[C@H]3[C@@H](OC)O[C@H](CO)[C@@H](O)[C@@H]3O)c(C)c2Cl)nc2cc(OC)ccc21 [Example 292] | 100 | 0.13 | 1.12 | –
10 | C#CCCCn1c(COc2cc(OC)c(C(=O)O[C@H]3[C@@H](OC)O[C@H](CO)[C@@H](O)[C@@H]3O)cc2Cl)nc2ccccc21 [Example 294] | 100 | 0.16 | 1.28 | –
11 | COC(=O)[C@@H](N)CCC(=O)NCc1cccc(COc2c(Cl)cc(C(=O)O[C@H]3[C@@H](OC)O[C@H](CO)[C@@H](O)[C@@H]3O)c(C)c2Cl)c1 [Example 308] | 35800 | 8.85 | > 33 | –
12 | CCOC(=O)CCCCCn1cc(CCCn2c(COc3c(Cl)cc(C(=O)O[C@H]4[C@@H](OC)O[C@H](CO)[C@@H](O)[C@@H]4O)c(C)c3Cl)nc3ccccc32)nn1 [Example 309] | 300 | 0.17 | 0.71 | –
13 | CCOC(=O)CCCn1cc(CCCn2c(COc3c(Cl)cc(C(=O)O[C@H]4[C@@H](OC)O[C@H](CO)[C@@H](O)[C@@H]4O)c(C)c3Cl)nc3ccccc32)nn1 [Example 310] | 400 | 0.17 | 0.89 | –
14 | CO[C@H]1O[C@H](CO)[C@@H](O)[C@H](O)[C@H]1OC(=O)c1cc(Cl)c(OCc2nc3ccccc3n2CCCc2cn(CCOCCOCC(=O)OC(C)(C)C)nn2)c(Cl)c1C [Example 311] | 400 | 0.12 | 0.7 | –
15 | COc1cc(C(=O)O[C@H]2[C@@H](OC)O[C@H](CO)[C@@H](O)[C@@H]2O)cc(Cl)c1OCc1cccc(NC(=O)CCc2cc(C)nn2C)c1 [Example 313] | – | 3.2 | 18.8 | –
16 | C#CCCCn1c(COc2cc(Cl)cc(C(=O)O[C@H]3[C@@H](OC)O[C@H](CO)[C@@H](O)[C@@H]3O)c2)nc2ccccc21 [Example 314] | 9700 | 2.81 | 28.5 | –
17 | COC(=O)/C=C/c1ccc(COc2c(Cl)cc(C(=O)N[C@H]3[C@@H](OC)O[C@H](CO)[C@@H](O)[C@@H]3O)c(C)c2Cl)cc1 [Example 315] | 12900 | 2.3 | > 33 | –
18 | CO[C@H]1O[C@H](CO)[C@@H](O)[C@H](O)[C@H]1NC(=O)c1cc(Cl)c(OCc2ccc(OCC(=O)OC(C)(C)C)cc2)c(Cl)c1C [Example 316] | 1600 | 1.52 | > 33 | –
19 | CO[C@H]1O[C@H](CO)[C@@H](O)[C@H](O)[C@H]1OC(=O)c1cc(Cl)c(OCc2ccc(OCC(=O)OC(C)(C)C)cc2)c(Cl)c1C [Example 319] | 7400 | 3 | 8.03 | –

Row | Compound | IC50 (A2780 cells) [nM] | IC50 [1, 2] [µM] | IC50 [1, 3] [µM] | inhibition at 100 µM (A2780 cells; inhibition of 14C 2-deoxy-D-glucose transport into A2780 cells at 100 μM, read-out: % inh. at 100 μM) [%]
20 | C#CCCCCCCn1c(COc2c(Cl)cc(C(=O)O[C@H]3[C@@H](OC)O[C@H](CO)[C@@H](O)[C@@H]3O)c(C)c2Cl)nc2ccccc21 [Example 321] | 200 | 0.56 | 1.2 | –
21 | COC(=O)[C@H](CCCCNC(=O)CCCCCn1c(COc2c(Cl)cc(C(=O)N[C@H]3[C@@H](OC)O[C@H](CO)[C@@H](O)[C@@H]3O)c(C)c2Cl)nc2ccccc21)NC(=O)OC(C)(C)C [Example 322] | 20000 | 1.42 | 7.06 | –
22 | CO[C@H]1O[C@H](CO)[C@@H](O)[C@H](O)[C@H]1NC(=O)c1cc(Cl)c(OCc2noc3ccc(C)cc23)c(Cl)c1C [Example 324] | 2100 | 0.94 | 7.98 | –
23 | CO[C@H]1O[C@H](CO)[C@@H](O)[C@H](O)[C@H]1OC(=O)c1cc(Cl)c(OCc2noc3ccc(C)cc23)c(Cl)c1C [Example 325] | 300 | 1.2 | 7.19 | –
24 | C#CCCCn1c(COc2cc(C(=O)O[C@H]3[C@@H](OC)O[C@H](CO)[C@@H](O)[C@@H]3O)cc3c2cnn3C)nc2ccccc21 [Example 327] | 9400 | 4.99 | > 33 | –
25 | C#CCCCn1c(COc2c(Cl)cc(C(=O)O[C@H]3[C@@H](OC)O[C@H](CO)[C@@H](O)[C@@H]3O)c(C)c2Cl)nc2ccc(C)cc21 [Example 329] | 10 | 0.2 | 0.94 | –
26 | C#CCCCn1c(COc2c(Cl)cc(C(=O)O[C@H]3[C@@H](OC)O[C@H](CO)[C@@H](O)[C@@H]3O)c(C)c2Cl)nc2cc(C)ccc21 [Example 330] | 300 | 0.92 | 3.52 | –
27 | C#CCCC(=O)Nc1cc(COc2c(Cl)cc(C(=O)O[C@H]3[C@@H](OC)O[C@H](CO)[C@@H](O)[C@@H]3O)c(C)c2Cl)ccc1OC [Example 331] | 1100 | 0.36 | 1.79 | –
28 | CO[C@H]1O[C@H](CO)[C@@H](O)[C@H](O)[C@H]1NC(=O)c1cc(Cl)c(OCc2nc3ccccc3n2CCCCCCNC(=O)[C@H](CC(C)C)N(C)C(=O)OC(C)(C)C)c(Cl)c1C [Example 341] | 1600 | 0.72 | 2.61 | –
29 | COC(=O)[C@H](CCC(=O)NCCCCCCn1c(COc2c(Cl)cc(C(=O)N[C@H]3[C@@H](OC)O[C@H](CO)[C@@H](O)[C@@H]3O)c(C)c2Cl)nc2ccccc21)NC(=O)OC(C)(C)C [Example 342] | 34200 | 2.18 | > 100 | –
30 | CO[C@H]1O[C@H](CO)[C@@H](O)[C@H](O)[C@H]1OC(=O)c1cc(Cl)c(OCc2cccc(CNC(=O)CCC(=O)OC(C)(C)C)c2)c(Cl)c1C [Example 344] | 1000 | 1.11 | 8.59 | –
31 | CO[C@H]1O[C@H](CO)[C@@H](O)[C@H](O)[C@H]1OC(=O)c1cc(Cl)c(OCc2cccc(NCCCC(=O)OC(C)(C)C)c2)c(Cl)c1C [Example 345] | 12400 | 2.41 | 6.59 | –
32 | CO[C@H]1O[C@H](CO)[C@@H](O)[C@H](O)[C@H]1OC(=O)c1cc(Cl)c(OCc2cccc(NC(=O)CCC(=O)OC(C)(C)C)c2)c(Cl)c1C [Example 347] | 2800 | 0.86 | 5.28 | –
33 | COc1cc(OCc2sc(C)nc2C(F)(F)F)c(Cl)cc1C(=O)O[C@H]1[C@@H](OC)O[C@H](CO)[C@@H](O)[C@@H]1O [Example 478] | 240 | – | – | –
34 | COc1cc(OCc2ccc(-c3nccs3)cc2)c(Cl)cc1C(=O)O[C@H]1[C@@H](OC)O[C@H](CO)[C@@H](O)[C@@H]1O [Example 479] | < 100 | – | – | –
35 | COc1cccc(COc2cc(OC)c(C(=O)O[C@H]3[C@@H](OC)O[C@H](CO)[C@@H](O)[C@@H]3O)cc2Cl)n1 [Example 480] | 4600 | – | – | –
36 | COc1cc(OCc2nc3ccccc3n2Cc2ccccc2)c(Cl)cc1C(=O)O[C@H]1[C@@H](OC)O[C@H](CO)[C@@H](O)[C@@H]1O [Example 481] | 600 | – | – | –
37 | COc1cc(OCc2cnc(OC)c(NCC(=O)O)c2)c(Cl)cc1C(=O)N[C@H]1[C@@H](OC)O[C@H](CO)[C@@H](O)[C@@H]1O [Example 483] | 36000 | – | – | –
38 | O=C(NC[C@@H]1O[C@H](CO)[C@@H](O)[C@H](O)[C@H]1O)c1ccc(COc2ccccc2)o1 [Example 490] | – | – | – | 20
